From the supplement of paper PMC10307832

How the values were obtained:
Assay in all cases: relative viability (nuclei count vs DMSO), 5 days (fraction); higher = more cells survive
[1] = compound: Cc1nc(Nc2ncc(C(=O)Nc3c(C)cccc3Cl)s2)cc(N2CCN(CCO)CC2)n1 [Dasatinib] + COc1cc2c(Oc3ccc(NC(=O)C4(C(=O)Nc5ccc(F)cc5)CC4)cc3F)ccnc2cc1OCCCN1CCOCC1 [Foretinib] (partner 0.25 µM)
Summary of the method: (§1)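 Lung cancer cell lines, seeded in 1536-well plates, were treated the following day by pin tool with a single drug or with five library-drug doses (not always all listed) in √10 steps on top of a fixed anchor-drug dose. Cells were fixed and nuclei stained in one step after 5 days, and nuclei were counted. Relative viability is the nuclei count for treated wells divided by that for vehicle wells, reported as medians of duplicate plates.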

[2] = compound: C1CC1C(=O)NC2=NNC3=C2C=CC(=C3)C4=CC(=CC=C4)C(=O)NC5CC5 [XMD13-2] + CC1(C)CCC(c2ccc(Cl)cc2)=C(CN2CCN(c3ccc(C(=O)NS(=O)(=O)c4ccc(N[C@H](CCN5CCOCC5)CSc5ccccc5)c(S(=O)(=O)C(F)(F)F)c4)cc3)CC2)C1 [Navitoclax] (partner 0.5 µM)
Summary of the method: as §1

[3] = compound: Cc1ccc(C(=O)Nc2cccc(C(F)(F)F)c2)cc1Nc1cncc(C(N)=O)c1 [ALW-II-49-7] + O=C(CCCCCCC(=O)Nc1ccccc1)NO [Vorinostat] (partner 1 µM)
Summary of the method: as §1

[4] = compound: C1CC1C(=O)NC2=NNC3=C2C=CC(=C3)C4=CC(=CC=C4)C(=O)NC5CC5 [XMD13-2] + C[C@]1(O)C[C@@H](c2nc(-c3ccc4ccc(-c5ccccc5)nc4c3)c3c(N)nccn32)C1 [Linsitinib] (partner 1 µM)
Summary of the method: as §1

Cell Line	relative viability ([1]; first compound 0.005 µM)	relative viability ([1]; first compound 0.01581 µM)	relative viability ([1]; first compound 0.05 µM)	relative viability ([1]; first compound 0.1581 µM)	relative viability ([1]; first compound 0.5 µM)	relative viability ([2]; first compound 0.05 µM)	relative viability ([2]; first compound 0.1581 µM)	relative viability ([2]; first compound 0.5 µM)	relative viability ([2]; first compound 1.581 µM)	relative viability ([2]; first compound 5 µM)	relative viability ([3]; first compound 0.08 µM)	relative viability ([3]; first compound 0.253 µM)	relative viability ([3]; first compound 0.8 µM)	relative viability ([3]; first compound 2.53 µM)	relative viability ([3]; first compound 8 µM)	relative viability ([4]; first compound 0.05 µM)	relative viability ([4]; first compound 0.1581 µM)	relative viability ([4]; first compound 0.5 µM)	relative viability ([4]; first compound 1.581 µM)	relative viability ([4]; first compound 5 µM)
NCI-H1623	0.855	0.675	0.8	0.672	0.457															
HCC-827	1.06	0.898	0.748	0.288	0.0947	0.962	1.02	1	0.978	0.898	0.9	0.803	0.787	0.813	0.883	0.873	0.9	0.874	0.9	0.863
NCI-H322M	0.909	0.75	0.485	0.285	0.233	1.19	1.19	1.44	1.15	1.14	0.789	0.93	0.861	0.93	0.773	0.963	0.864	1.07	0.891	0.891
ChaGo-K-1	0.922	0.881	0.874	0.725	0.667	1.06	0.882	0.799		0.942	0.744	0.75	0.713	0.689	0.83					
BEN	0.682	0.513	0.35	0.366	0.291	0.186	0.0776	0.0786	0.0451	0.0694	0.557	0.723	0.592	0.441	0.558	1.07	0.884	0.963	0.866	0.898
NCI-H2347	0.625	0.504	0.436	0.378	0.495	0.726	0.827	0.919	0.786	0.981	0.519	0.5	0.653	0.49	0.559	0.973	0.951	0.973	0.924	0.972
LOU-NH91	0.985	0.899	0.827	0.652	0.397	0.752	0.688	0.715	0.696	0.769	0.884	0.888	1		0.805	0.985	0.981	0.966	0.876	1.1
NCI-H2228	0.853	0.614	0.766	0.51	0.407	1.15	0.949	0.643	0.668	0.841	0.534	0.414	0.513	0.674	0.49	0.735	0.83	0.768	0.546	0.622
NCI-H2342	1.02	0.662	0.977	0.51	0.34						0.702	0.922	0.744	0.837	0.859					
HCC-366	0.739	0.588	0.543	0.563	0.449	1.12	1.07	1.13	1.06	1.19	0.49	0.363	0.258	0.343	0.21	0.809	0.54	0.749	0.647	0.736
NCI-H2405	0.983	0.714	0.564	0.304	0.233	0.871	0.727	0.9	0.767	0.916	1.08	1.14	0.968	0.905	0.789	0.936	0.975	0.958	0.939	1.03
Calu-6	0.738	0.702	0.633	0.513	0.469	0.915	0.829	0.808	0.776	0.548						0.949	0.996		0.912	0.913
201T	0.945	0.883	0.816	0.531	0.346	1.22	1.25	1.2	1.19	1.29	0.922	1.02	0.995	1.02	0.801	1.06	1.08	1.01	0.957	0.908
CAL-12T	1.18	1.04	1.23	0.66	0.532	1.41	1.06	1	1.18	1.24	0.681	0.866	0.834	0.737	0.76	0.802	0.764	0.837	0.68	0.843
HCC-44						1.01	1.03	1.12	0.949	1	1.14	1.11	1.11	1.12	1.09	0.683	0.694	0.697	0.704	0.773
NCI-H358	0.649	0.532	0.433	0.198	0.162						1	0.694	0.805	0.574	0.447	0.759	0.764	0.826	0.663	0.449
SW 900	0.685	0.608	0.787	0.476	0.225						0.539	0.554		0.517	0.289					

Cell Line	relative viability ([1]; first compound 0.005 µM)	relative viability ([1]; first compound 0.01581 µM)	relative viability ([1]; first compound 0.05 µM)	relative viability ([1]; first compound 0.1581 µM)	relative viability ([1]; first compound 0.5 µM)	relative viability ([2]; first compound 0.05 µM)	relative viability ([2]; first compound 0.1581 µM)	relative viability ([2]; first compound 0.5 µM)	relative viability ([2]; first compound 1.581 µM)	relative viability ([2]; first compound 5 µM)	relative viability ([3]; first compound 0.08 µM)	relative viability ([3]; first compound 0.253 µM)	relative viability ([3]; first compound 0.8 µM)	relative viability ([3]; first compound 2.53 µM)	relative viability ([3]; first compound 8 µM)	relative viability ([4]; first compound 0.05 µM)	relative viability ([4]; first compound 0.1581 µM)	relative viability ([4]; first compound 0.5 µM)	relative viability ([4]; first compound 1.581 µM)	relative viability ([4]; first compound 5 µM)
NCI-H2087	1.2	1.16	1.31	0.756	0.464	1.01	1.13	1.02	0.968	0.959	0.687	0.597	0.662	0.508	0.38	0.922	0.991	0.869	0.811	0.784
COR-L 105	0.786	0.955	0.64	0.377	0.264	0.818	0.761	1.25	0.684	0.872	0.772	0.911	0.688	0.809	0.967	1.04	1.13	1	0.875	0.797
LCLC-97TM1	0.968	0.955	1.04	0.78	0.461	0.475	0.456	0.278	0.409	0.227	0.96	0.683	0.642	0.685	0.49	0.206	0.157	0.187	0.176	0.178
NCI-H650	1.02	0.875	1.01	0.759	0.475						0.351	0.461	0.579	0.42	0.374	0.983	0.857	0.899	0.718	0.865
NCI-H522											0.824	1.04	0.824	0.834	0.94					
ABC-1	1.08	0.906	0.948	0.692	0.487						1.05	1.2	1.13	0.78	1.27	0.918	0.874	1.04	0.704	0.86
NCI-H1563	0.82	0.751	0.746	0.578	0.517											1.22	1.27	1.16	1.12	1.31
NCI-H1703	0.276	0.292	0.23	0.202	0.262	1.59	1.19	1.24	0.889	1.16						0.637	1.23	0.805		0.74
NCI-H661	1.02	1.03	0.964	0.735	0.599						0.854	0.859	0.823	0.795	0.79	0.67	0.708	0.58	0.555	0.398
LCLC-103H	0.725	0.626	0.55	0.378	0.157						0.79	0.763	0.658	0.71	0.618	1	1.1	1.25	1.18	1.14
NCI-H2170	0.958	0.927	0.708	0.678	0.491	0.761	0.577	0.577	0.569	0.475	0.917	0.921	0.841	0.796	0.867					
NCI-H1792						0.746	0.591	0.715	0.491	0.886						0.631	0.519	0.586	0.661	0.515
NCI-H1648											0.346	0.298	0.287	0.327	0.425					
EBC-1	0.106		0.0991	0.121	0.0976	0.563	0.375	0.404	0.232	0.176						0.889	0.966	1.08	0.874	0.766
NCI-H1650	0.877	0.64	0.635	0.247	0.262	1.07	1.05	0.993	1.33	1.52	0.518	0.656	0.563	0.524	0.576					
NCI-H1299	1.11	0.708	1.09	0.386	0.255	1.04	1.03	1.06	1.03	1.09						0.982	1.03	1.15	0.997	1.03
A549	0.876	0.817	0.59	0.3	0.119	1.53	1.23	1.13	1.16	1.17						0.856	0.513	0.579	0.677	0.674
